We go through two compounds from patent publication US8669378B2, “Process for synthesizing epicconone analogs” (Universite de Rouen, priority 2009, dated 2014).

Data set [1] in a line: Absorbance of the adducts with butylamine in acetonitrile. The conditions noted are these: Bioconjugated molecule (BuNH2) in CH3CN; for λ UV (nm), second maximum: longer-wavelength absorption maximum, used for excitation; for λ UV (nm), first maximum: shorter-wavelength absorption maximum. The class given is physicochemical. As for the experimental part: (§1) Apparatus: • Acetonitrile: VWR HPLC quality • Micropipette: 5 μl, 10 μl, 200 μl, 1000 μl, • Eppendorf: Safe lock tube PCR • UV cuvette: Varian-Quartz 10 mm thick • Fluorescence cuvette: Hellma-Quartz 10 mm thick • Vortex: Bender & Hobein-Genie 2 • Centrifuge: Baky Bug • Absorbance spectrophotometer: Varian-Cary 50 scan • Fluorescence spectrophotometer: Varian-Cary Eclipse • Thermostated bath: Varian-Cary single cell peltier accessory Stock Solution:
(§2) Approximately exactly 1 to 2 mg of compound Ia-Io are weighed out in a 1.5 mL Eppendorf tube. The stock solutions are then prepared by adding exactly 1 mL of acetonitrile and the Eppendorf tubes are then stored protected from light.
30 μl of stock solution are placed in a 1.5 mL Eppendorf tube. At room temperature, 10 μl (or 30 μl in the case of Ik) of a 0.15 M solution of butylamine/acetonitrile are added and the medium is stirred by vortex and then centrifuged. After diluting to 1 mL by adding 960 μl of acetonitrile (or 940 μl in the case of Ik), the clear solution is transferred into a UV cuvette and then made up to 2 mL with acetonitrile. The analysis is then performed after producing a “blank” spectrum with a pure acetonitrile solution.

The nature of data set [2]: Fluorescence of the adducts with butylamine in acetonitrile. In kind it is physicochemical. As to conditions: Bioconjugated molecule (BuNH2) in CH3CN; for Δ Stokes: emission minus excitation wavelength; for λ fluo (λ excitation) (nm): excitation at maximum-absorption wavelength; for Intensity normalized to 50 μM: fluorescence intensity. Also on record: Δ Stokes: unit not given here. How it is done:
as §1, §2
Two protocols were implemented for the fluorescence tests. • For compounds Ii-Ik: 125 μL of the preceding solution (absorbance solution) are diluted to 1.25 mL by adding 1125 μl of acetonitrile to a fluorescence cuvette. The analysis is then performed on the fluorescence spectrophotometer by excitation at the respective maximum-absorption wavelengths. • For compounds Ia-Ih and Il-Io: 1250 μl of the preceding solution (absorbance) are placed in a fluorescence cuvette. The analysis is then performed on the fluorescence spectrophotometer by excitation at the respective maximum-absorption wavelengths.

A short description of data set [3]: Photobleaching of stained standard proteins in gel under UV transilluminator. The class given is physicochemical. The conditions noted are these: protein-stained gel, first-order exponential decay fit, deduced from FIG. 1. How it is done:
The compounds were dissolved at 10 mg/mL in DMSO. The stock solutions obtained were diluted to 1 mg/mL in water and divided into 100 μL aliquots for storage. All the products and aliquots were stored at −80° C.
Standard proteins (SDS labeling kit-low molecular weight sold by GE, 17-0446-01) were diluted in an LDS buffer (250 μL Invitrogen 4×LDS buffer, 100 μL of 1 M DDT, 650 μL of water) to create serial dilutions ranging from 128 ng/STI band to 125 pg/STI band.
5 μL of each protein solution were loaded onto NuPAGE® Novex® 12% bis-tris gels (1.0 mm thick, 12 wells, Invitrogen NP0342BOX). The gels were subjected to a current of 150 V for approximately 65 minutes using MES buffer (50 mM MES, 50 mM tris, 1 mM EDTA, 0.1% SDS, pH 7.3) so that the buffer front arrives just up to the gel. After eluting the dye, the gels were fixed for 1 to 17 hours (100 mL of fixing solution with 15% EtOH (v/v) and 1% citric acid) in individual lanes. The fixing solution used was replaced with fresh solution one hour after staining. The gels were stained for 1 hour in 50 mL of sodium borate buffer at 100 mM (pH 10.9) containing either […] of LavaPurple gel dye (Fluorotechnics; LP-011005) or one of the test compounds (50 μL for a 1 mg/mL solution). The gels were treated with 100 mL of 15% ethanol and then washed with 100 mL of fixing solution for 30 minutes.
Imaging was performed using a Typhoon Trio imager (excitation: 532 nm, emission filter: 610BP30, 540 PMT, resolution: 100 μm) using a normal sensitivity. The recorded image corresponds to the scan at time zero. The gels were then placed in a UV transilluminator for 60, 146, 240, 330, 630 and 990 seconds (total exposure time), a Typhoon scanner image being recorded between each exposure. The volumes of the bands were analyzed using the Image-Quant TL software, and all the band volumes were normalized with phosphorylase B. The photobleaching was analyzed by graphically representing the band volumes as a function of the exposure time (GraphPad Prism v4 software) and by fitting the curve to a first-order exponential decay to determine a pseudofirst-order rate constant.
FIG. 1 represents the decrease of the normalized residual signal of compounds (Ii), (Ij), (Ik), (In) and (Io) according to the invention and of epicocconone.
From this FIGURE, the half-life times of the compounds may be deduced: […]

For data set [4] the following is noted: cited from earlier work.
For data set [5] the following is noted: water and lipid bilayers; cited from earlier work.

`C/C=C/C=C/C=C/C(=O)/C=C(\O)C1=C2C=C3C[C@@H](CO)OC=C3C(=O)[C@@]2(C)OC1=O` [epicocconone, 5,6-dihydro-3-[(1Z,4E,6E,8E)-1-hydroxy-3-oxo-1,4,6,8-decatetraenyl]-6-hydroxymethyl-9a-methyl-2H-furo[3,2g][2]benzopyran-2,9-(9aH)-dione, reference compound]: in data set [1], the “λ UV (nm), second maximum” value came to 515 nm and the “λ UV (nm), first maximum” value was found to be 388 nm. In data set [2], the “Δ Stokes” value is 95, the “λ fluo (λ excitation) (nm)” value amounted to 610 nm and the “Intensity normalized to 50 μM” value was found to be 3950. Further, the “Half-life time” value in data set [3] was 11.3 min. The “fluorescence emission wavelength of enamine adduct” value in data set [4] (adduct with amine functions, UV-Vis radiation, for example at 395 nm or 520 nm) is on record as “about 600 nm”. Moreover, in data set [4] (difference between absorption and emission wavelength), the Stokes shift result was “about 100 nm”. Also, the solubility entry in data set [5] was “good solubility both in water and in lipid bilayers”.
As for `CC1(C)CC2=CC3=C(C(=O)/C=C(\O)c4ccc5ccccc5c4)C(=O)OC3(C)C(=O)C2=CO1` (stereo not drawn) [Io, 3-(1-hydroxy-3-naphtalen-2-yl-3-oxopropenyl)-6,6,9a-trimethyl-5,6-dihydro-9aH-furo[3,2-g]isochromene-2,9-dione], in data set [1], the “λ UV (nm), second maximum” value came out at 520 nm and the “λ UV (nm), first maximum” value was 364 nm. In data set [2], the “Δ Stokes” value is 89, the “λ fluo (λ excitation) (nm)” value is given as 609 nm and the “Intensity normalized to 50 μM” value is on record as 4320. For the same compound, the “Half-life time” value in data set [3] is 44.7 min.
